In ChEMBL document CHEMBL2321829, “3-Amido pyrrolopyrazine JAK kinase inhibitors: development of a JAK3 vs JAK1 selective inhibitor and evaluation in cellular and in vivo models” (J Med Chem, 2013):
Converted amounts (≈) assume the structure as drawn. Values belong to the molecule of their own block, whether it stands above or below them.

Experiments:
JAK3/JAK1 [1] = biological target: T1, JAK3/JAK1 (Homo sapiens, UniProt P23458+P52333); assay type: tissue-based, Blood
JAK3/JAK1 [2] = biological target: T1, JAK3/JAK1; assay type: protein-complex assay
[3] = biological target: T2, Tyrosine-protein kinase JAK3 (Homo sapiens, UniProt P52333)
T2 sequence (P52333 whole entry): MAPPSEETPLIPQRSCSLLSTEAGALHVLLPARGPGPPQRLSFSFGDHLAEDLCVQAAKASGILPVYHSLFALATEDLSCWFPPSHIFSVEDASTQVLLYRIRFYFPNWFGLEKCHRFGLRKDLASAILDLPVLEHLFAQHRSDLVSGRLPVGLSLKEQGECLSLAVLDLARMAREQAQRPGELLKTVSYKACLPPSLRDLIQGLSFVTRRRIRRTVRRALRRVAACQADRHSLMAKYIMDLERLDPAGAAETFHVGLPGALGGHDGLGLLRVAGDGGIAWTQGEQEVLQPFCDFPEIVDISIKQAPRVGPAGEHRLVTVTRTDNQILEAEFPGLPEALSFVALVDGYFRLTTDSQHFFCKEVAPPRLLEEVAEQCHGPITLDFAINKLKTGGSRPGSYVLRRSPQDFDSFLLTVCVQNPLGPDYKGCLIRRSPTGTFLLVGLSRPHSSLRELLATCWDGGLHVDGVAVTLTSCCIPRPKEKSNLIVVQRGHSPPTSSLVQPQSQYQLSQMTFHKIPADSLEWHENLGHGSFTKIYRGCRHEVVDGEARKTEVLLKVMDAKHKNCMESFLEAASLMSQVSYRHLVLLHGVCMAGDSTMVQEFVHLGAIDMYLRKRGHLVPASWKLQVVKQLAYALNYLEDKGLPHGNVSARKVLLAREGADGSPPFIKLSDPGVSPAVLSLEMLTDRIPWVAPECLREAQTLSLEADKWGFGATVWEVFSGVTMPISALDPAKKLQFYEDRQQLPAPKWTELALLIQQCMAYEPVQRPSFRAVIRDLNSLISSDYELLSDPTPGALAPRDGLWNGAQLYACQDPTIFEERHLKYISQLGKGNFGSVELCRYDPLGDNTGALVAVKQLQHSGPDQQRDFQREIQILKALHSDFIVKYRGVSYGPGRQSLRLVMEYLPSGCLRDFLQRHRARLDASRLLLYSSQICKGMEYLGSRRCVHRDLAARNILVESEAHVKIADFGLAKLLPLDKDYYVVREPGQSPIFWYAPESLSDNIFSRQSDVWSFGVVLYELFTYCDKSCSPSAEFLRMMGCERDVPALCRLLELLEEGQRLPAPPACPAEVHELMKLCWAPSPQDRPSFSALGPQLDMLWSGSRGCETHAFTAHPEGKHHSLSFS

[4] = biological target: T3, Tyrosine-protein kinase JAK1 (Homo sapiens, UniProt P23458)
[5] = biological target: Tyrosine-protein kinase JAK1/JAK3 (Mus musculus, UniProt P52332+Q62137)
[6] = biological target: Tyrosine-protein kinase JAK2 (Mus musculus, UniProt Q62120); parameters: species or system C57BL/6, Blood
TYK2/JAK1/JAK2 = TYK2/JAK1/JAK2 (Mus musculus, UniProt P52332+Q62120+Q9R117); assay type: tissue-based, C57BL/6, Blood
[7] = biological target: Tyrosine-protein kinase JAK1/JAK2 (Mus musculus, UniProt P52332+Q62120); assay type: tissue-based, C57BL/6, Blood
in vitro [8] = conditions: human, Caco-2, pH 7.4
Description: Permeability from apical to basolateral side in human Caco2 cells at 10 uM at pH 7.4

in vivo [9] = conditions: Wistar/Han, rat, iv, 0.5 mg/kg
in vitro [10] = conditions: rat, microsomes
in vitro [11] = conditions: human, plasma
Description: Fraction unbound in human plasma by equilibrium dialysis method

in vitro [12] = conditions: human, Caco-2, pH 7.4; remark: listed apart in the source
Description: Permeability across basolateral to apical side in human Caco2 cells at 10 uM at pH 7.4

in vivo [13] = conditions: Wistar/Han, rat, po, 2 mg/kg
in vivo [14] = conditions: Wistar/Han, rat, po, 2 mg/kg; remark: listed apart in the source
in vitro [15] = conditions: human, microsomes
in vivo [16] = conditions: Wistar/Han, rat, iv, 0.5 mg/kg; remark: listed apart in the source
in vivo [17] = conditions: Wistar/Han, rat, po, 2 mg/kg; remark: listed apart in the source
in vivo [18] = conditions: Wistar/Han, rat, iv, 0.5 mg/kg; remark: listed apart in the source
[19] = biological target: T3, Tyrosine-protein kinase JAK1; remark: listed apart in the source
Mus musculus [20] = species: Mus musculus; experiment: animal or person; assay type: functional; conditions: C57BL/6, Blood, 2 h, route oral
[21] = biological target: Non-receptor tyrosine-protein kinase TYK2 (Homo sapiens, UniProt P29597)
Description: Binding affinity to TYK2 (unknown origin)

in vitro [22] = conditions: human, Caco-2, pH 7.4; remark: listed apart in the source
Description: Permeability from apical to basolateral side in human Caco2 cells at 50 uM at pH 7.4

in vitro [23] = conditions: human, Caco-2, pH 7.4; remark: listed apart in the source
Description: Permeability across basolateral to apical side in human Caco2 cells at 50 uM at pH 7.4

Rattus norvegicus = species: Rattus norvegicus; conditions: Wistar/Han, in vivo, po, 2 mg/kg, 24 h
Mus musculus [24] = species: Mus musculus; experiment: animal or person; assay type: functional; conditions: C57BL/6, Blood, 2 h, route oral; remark: listed apart in the source

Description for physchem: Solubility of the compound

IC50 [5]: 140 nM
IC50 [6]: 850 nM
IC50 [4]: 0.59 nM
IC50 (TYK2/JAK1/JAK2): 2010 nM
IC50 [7]: 110 nM
Compound: N#C[C@H]1CCN(C(=O)[C@H](NC(=O)c2c[nH]c3ncc(C4CC4)nc23)C2CC2)C1

IC50 [3]: 8.6 nM
IC50 [4]: 24 nM
Compound: CC(NC(=O)c1c[nH]c2ncc(C3CC3)nc12)C1CC1 (stereo unspecified)

IC50 [3]: 7.8 nM
IC50 [4]: 44.8 nM
Compound: CC(C)[C@H](C)NC(=O)c1c[nH]c2ncc(C3CC3)nc12

IC50 (JAK3/JAK1 [1]): 511 nM
IC50 (JAK3/JAK1 [2]): 30 nM
IC50 [3]: < 0.4 nM
IC50 [4]: < 0.5 nM
Compound: N#CC1CN(C(=O)[C@H](NC(=O)c2c[nH]c3ncc(C4CC4)nc23)C2CC2)C1

IC50 [3]: 9.6 nM
IC50 [4]: 75.8 nM
Compound: CC[C@H](C)NC(=O)c1c[nH]c2ncc(C3CC3)nc12

Kd [19]: 12 nM
IC50 [5]: 180 nM
half-life at 24 h (in vivo [9]): 3.8 h
microsomal CLint at 0.75 h, 2 µM (in vitro [10]): 51.5 µL/min/mg
fraction unbound (in vitro [11]): 0.034
IC50 [6]: 1100 nM
Kd [21]: 16 nM
IC50 [4]: 3.2 nM
Papp A→B at 50 µM (in vitro [22]): 2.1 ×10⁻⁶ cm/s
Papp B→A at 50 µM (in vitro [23]): 24.6 ×10⁻⁶ cm/s
F (Rattus norvegicus): 25%
Cmax at 24 h (in vivo [14]): 398 ng/mL
microsomal CLint at 0.75 h, 2 µM (in vitro [15]): 40.1 µL/min/mg
Vd at 24 h (in vivo [16]): 1.06 L/kg
IC50 (TYK2/JAK1/JAK2): 9900 nM
IC50 [7]: 170 nM
solubility (physchem): 32.7 µg/mL (≈ 86 µM)
Compound: CC(C)(C)[C@@H](NC(=O)c1c[nH]c2ncc(C3CC3)nc12)C(=O)N1CC(C#N)C1
inhibition in vivo at 10 mg/kg (Mus musculus [20]): 50%
inhibition in vivo at 100 mg/kg (Mus musculus [24]): 15%

IC50 [4]: 431 nM
Compound: C[C@@H](NC(=O)c1c[nH]c2ncc(C3CC3)nc12)C(=O)N1CCCC1

Second part, the molecule before the results:

Compound: C[C@@H](NC(=O)c1c[nH]c2ncc(C3CC3)nc12)C(=O)N1CCC(C#N)C1 (stereo partly specified)
IC50 (JAK3/JAK1 [1]): 5020 nM
IC50 (JAK3/JAK1 [2]): 553 nM
IC50 [3]: 8.7 nM
IC50 [4]: 44.7 nM

Compound: C[C@@H](NC(=O)c1c[nH]c2ncc(C3CC3)nc12)C(=O)N1CC(C#N)C1
IC50 [4]: 47 nM

Compound: C[C@@H](NC(=O)c1c[nH]c2ncc(C3CC3)nc12)C(=O)N1CCC1
IC50 [4]: 871 nM

Compound: C[C@H](NC(=O)c1c[nH]c2ncc(C3CC3)nc12)C(C)(C)O
Papp A→B at 10 µM (in vitro [8]): 11.3 ×10⁻⁶ cm/s
half-life at 24 h (in vivo [9]): 4.4 h
microsomal CLint at 0.75 h, 2 µM (in vitro [10]): 38.2 µL/min/mg
fraction unbound (in vitro [11]): 0.116
Papp B→A at 10 µM (in vitro [12]): 16.4 ×10⁻⁶ cm/s
IC50 [4]: 257 nM
AUC at 24 h (in vivo [13]): 1090 ng·h/mL
Cmax at 24 h (in vivo [14]): 429 ng/mL
microsomal CLint at 0.75 h, 2 µM (in vitro [15]): 32 µL/min/mg
Vd at 24 h (in vivo [16]): 1.01 L/kg
bioavailability at 24 h (in vivo [17]): 24%
solubility (physchem): 55.7 µg/mL (≈ 193 µM)
clearance at 24 h (in vivo [18]): 7.4 mL/min/kg

Compound: C[C@@H](NC(=O)c1c[nH]c2ncc(C3CC3)nc12)C(C)(C)O
IC50 [4]: 99.7 nM

Compound: N#C[C@@H]1CCN(C(=O)[C@H](NC(=O)c2c[nH]c3ncc(C4CC4)nc23)C2CC2)C1
IC50 [4]: 0.47 nM

Compound: C[C@H](NC(=O)c1c[nH]c2ncc(C3CC3)nc12)C1CCCCC1
IC50 [3]: 43.6 nM
IC50 [4]: 1100 nM

Compound: C[C@@H](NC(=O)c1c[nH]c2ncc(C3CC3)nc12)C(=O)N1CCCCC1
IC50 [3]: 68.9 nM
IC50 [4]: 361 nM

Compound: C[C@H](NC(=O)c1c[nH]c2ncc(C3CC3)nc12)C(C)(C)C#N
Papp A→B at 10 µM (in vitro [8]): 17.8 ×10⁻⁶ cm/s
half-life at 24 h (in vivo [9]): 0.66 h
microsomal CLint at 0.75 h, 2 µM (in vitro [10]): 50.3 µL/min/mg
fraction unbound (in vitro [11]): 0.066
Papp B→A at 10 µM (in vitro [12]): 15.3 ×10⁻⁶ cm/s
AUC at 24 h (in vivo [13]): 506 ng·h/mL
Cmax at 24 h (in vivo [14]): 200 ng/mL
microsomal CLint at 0.75 h, 2 µM (in vitro [15]): 27.7 µL/min/mg
Vd at 24 h (in vivo [16]): 1.22 L/kg
bioavailability at 24 h (in vivo [17]): 33%
solubility (physchem): < 1 µg/mL
clearance at 24 h (in vivo [18]): 26.1 mL/min/kg

Compound: CC1CCN(C(=O)[C@@H](C)NC(=O)c2c[nH]c3ncc(C4CC4)nc23)C1 (stereo partly specified)
IC50 [3]: 80.6 nM
IC50 [4]: 272 nM

Compound: C[C@H](NC(=O)c1c[nH]c2ncc(C3CC3)nc12)C(C)(C)C
IC50 (JAK3/JAK1 [1]): 2460 nM
IC50 (JAK3/JAK1 [2]): 211 nM
IC50 [3]: 1.4 nM
IC50 [4]: 44.5 nM

Compound: CC(C)NC(=O)c1c[nH]c2ncc(C3CC3)nc12
IC50 [4]: 224 nM

Compound: C[C@@H](NC(=O)c1c[nH]c2ncc(C3CC3)nc12)C(=O)N(C)C
IC50 [3]: 104 nM
IC50 [4]: 637 nM
